According to patent US9296741B2, “Bromodomain inhibitors” (priority 2012, dated 2016):

Experiments:
[1] = Mouse liver microsome stability assay; format: in vitro ADME
[2] = Rat liver microsome stability assay; format: in vitro ADME; conditions: rat liver microsomes (male Sprague-Dawley), 0.5 μM test compound, pH 7.4, 37° C.; for half-life at 0.5 μM: 0.25 mg/mL microsomal protein, read-out: Stability in rat liver microsomes (t1/2 in minutes)
[3] = tested on: breast cancer cell line MX-1; assay: MX-1 cell line proliferation assay; format: cell-based, human; conditions: Homo sapiens, MX1, 72 h; MX-1 cells, 3-day proliferation, Cell Titer Glo; read-out: Cellular proliferation: EC50
[4] = Human liver microsome stability assay; format: in vitro ADME; conditions: both sexes
[5] = biological target: human BRD4 second bromodomain (BDII_E352-M457) (Homo sapiens (Human), UniProt O60885); assay: TR-FRET bromodomain binding assay, BRD4 second bromodomain
[6] = biological target: human BRD4 first bromodomain (BDI_K57-E168) (Homo sapiens (Human), UniProt O60885); assay: TR-FRET bromodomain binding assay, BRD4 first bromodomain
[7] = male, CD1, mouse, microsomes, pH 7.4

SMILES | half-life at 0.5 μM [1, 7] | half-life at 0.5 μM [2] | EC50 [3] | half-life at 0.5 μM ([4]; human, microsomes, pH 7.4) | Stability in rat liver microsomes (t1/2 in minutes) ([2]; […] microsomal protein) | Ki [5] | Ki [6] | half-life at 0.5 μM ([1]; mouse liver microsomes (male CD1), 0.5 μM test compound, 0.25 mg/mL microsomal protein, pH 7.4, 37° C., read-out: Stability in mouse liver microsomes (t1/2 in minutes)) | half-life at 0.5 μM ([4]; human liver microsomes, 0.5 μM test compound, 0.25 mg/mL microsomal protein, pH 7.4, 37° C., read-out: Stability in human liver microsomes (t1/2 in minutes))
Cn1cc(-c2ccccc2CN2CCOCC2)c2cc[nH]c2c1=O [Example 12, 6-methyl-4-[2-(morpholin-4-ylmethyl)phenyl]-1,6-dihydro-7H-pyrrolo[2,3-c]pyridin-7-one] | 33 min | 10 min | > 3000 nM | 51 min | – | – | – | – | –
Cn1cc(-c2cc(CN3CCCC3)ccc2OCC2CC2)c2cc[nH]c2c1=O [Example 314, 4-[2-(cyclopropylmethoxy)-5-(pyrrolidin-1-ylmethyl)phenyl]-6-methyl-1,6-dihydro-7H-pyrrolo[2,3-c]pyridin-7-one] | 6 min | 4 min | – | 81 min | – | 1290 nM | 1600 nM | – | –
CCS(=O)(=O)Nc1cc(-c2cn(C)c(=O)c3[nH]ccc23)c(Oc2ccc(F)cc2F)cc1C#N [Example 324, N-[2-cyano-4-(2,4-difluorophenoxy)-5-(6-methyl-7-oxo-6,7-dihydro-1H-pyrrolo[2,3-c]pyridin-4-yl)phenyl]ethanesulfonamide] | > 120 min | > 120 min | – | > 120 min | – | 1.2 nM | 3.2 nM | – | –
Cn1cc(-c2cc(C3=CCNCC3)ccc2OCC2CC2)c2cc[nH]c2c1=O [Example 340, 4-[2-(cyclopropylmethoxy)-5-(1,2,3,6-tetrahydropyridin-4-yl)phenyl]-6-methyl-1,6-dihydro-7H-pyrrolo[2,3-c]pyridin-7-one] | – | 4 min | – | – | – | 1250 nM | 942 nM | 9 min | > 120 min
CCS(=O)(=O)Nc1ccc(Oc2ccc(F)cc2F)c(-c2cn(C)c(=O)c3[nH]cc(CN4CCOCC4)c23)c1 [Example 350, N-{4-(2,4-difluorophenoxy)-3-[6-methyl-3-(morpholin-4-ylmethyl)-7-oxo-6,7-dihydro-1H-pyrrolo[2,3-c]pyridin-4-yl]phenyl}ethanesulfonamide] | 23 min | 32 min | – | 59 min | – | 505 nM | 1400 nM | – | –

Further lines, with some results ahead:

half-life at 0.5 μM [1, 7] | half-life at 0.5 μM [2] | EC50 [3] | half-life at 0.5 μM ([4]; human, microsomes, pH 7.4) | Stability in rat liver microsomes (t1/2 in minutes) ([2]; […] microsomal protein) | Ki [5] | Ki [6] | SMILES | half-life at 0.5 μM ([1]; mouse liver microsomes (male CD1), 0.5 μM test compound, 0.25 mg/mL microsomal protein, pH 7.4, 37° C., read-out: Stability in mouse liver microsomes (t1/2 in minutes)) | half-life at 0.5 μM ([4]; human liver microsomes, 0.5 μM test compound, 0.25 mg/mL microsomal protein, pH 7.4, 37° C., read-out: Stability in human liver microsomes (t1/2 in minutes))
16 min | 18 min | 283 nM | 31 min | – | – | – | Cn1cc(-c2cc(C(=O)Nc3nccs3)ccc2Oc2ccccc2)c2cc[nH]c2c1=O [Example 17, 3-(6-methyl-7-oxo-6,7-dihydro-1H-pyrrolo[2,3-c]pyridin-4-yl)-4-phenoxy-N-(1,3-thiazol-2-yl)benzamide] | – | –
6 min | – | 167 nM | 13.1 min | 1 min | – | – | CCOC(=O)c1ccc(NC2CCCC2)c(-c2cn(C)c(=O)c3[nH]ccc23)c1 [Example 40, ethyl 4-(cyclopentylamino)-3-(6-methyl-7-oxo-6,7-dihydro-1H-pyrrolo[2,3-c]pyridin-4-yl)benzoate] | – | –
3 min | 2 min | 233 nM | – | – | – | – | COC(=O)Cc1ccc(OCc2ccccc2)c(-c2cn(C)c(=O)c3[nH]ccc23)c1 [Example 45, methyl [4-(benzyloxy)-3-(6-methyl-7-oxo-6,7-dihydro-1H-pyrrolo[2,3-c]pyridin-4-yl)phenyl]acetate] | – | –
13 min | 4 min | 588 nM | 10 min | – | – | – | CCNC(=O)Cc1ccc(OCc2ccccc2)c(-c2cn(C)c(=O)c3[nH]ccc23)c1 [Example 46, 2-[4-(benzyloxy)-3-(6-methyl-7-oxo-6,7-dihydro-1H-pyrrolo[2,3-c]pyridin-4-yl)phenyl]-N-ethylacetamide] | – | –
13 min | 9 min | 200 nM | 25 min | – | – | – | Cn1cc(-c2cc(C(=O)N3CCCC3)ccc2Oc2ccc(F)cc2F)c2cc[nH]c2c1=O [Example 55, 4-[2-(2,4-difluorophenoxy)-5-(pyrrolidin-1-ylcarbonyl)phenyl]-6-methyl-1,6-dihydro-7H-pyrrolo[2,3-c]pyridin-7-one] | – | –
